Data as given in patent US8993752B2, “Neprilysin inhibitors” (Theravance Biopharma R&D IP, LLC, priority 2011, dated 2015).

Biological target: T1, human NEP (Homo sapiens, UniProt P08473)
T1 construct: purchased R&D Systems, Minneapolis, Minn; 1182-ZN
Test: In vitro enzyme inhibition assay at human NEP (fluorogenic peptide substrate)
Assay type: biochemical
Conditions: recombinant human NEP, substrate Mca-D-Arg-Arg-Leu-Dap-(Dnp)-OH 10 μM, 37° C., values given as ranges; for Ki: read-out: pKi values at human NEP (converted)
Method: The inhibitory activities of compounds at human and rat neprilysin (EC 3.4.24.11; NEP) and human angiotensin converting enzyme (ACE) were determined using in vitro assays as described below.
Recombinant human NEP and recombinant human ACE were obtained commercially (R&D Systems, Minneapolis, Minn., catalog numbers 1182-ZN and 929-ZN, respectively). The fluorogenic peptide substrate Mca-D-Arg-Arg-Leu-Dap-(Dnp)-OH (Medeiros et al. (1997) Braz. J. Med. Biol. Res. 30:1157-62; Anaspec, San Jose, Calif.) and Abz-Phe-Arg-Lys(Dnp)-Pro-OH (Araujo et al. (2000) Biochemistry 39:8519-8525; Bachem, Torrance, Calif.) were used in the NEP and ACE assays respectively.
The assays were performed in 384-well white opaque plates at 37° C. using the fluorogenic peptide substrates at a concentration of 10 μM in Assay Buffer (NEP: 50 mM HEPES, pH 7.5, 100 mM NaCl, 0.01% polyethylene glycol sorbitan monolaurate (Tween-20), 10 μM ZnSO4; ACE: 50 mM HEPES, pH 7.5, 100 mM NaCl, 0.01% Tween-20, 1 μM ZnSO4).
Test compounds were assayed over the range of concentrations from 10 μM to 20 pM. Test compounds were added to the enzymes and incubated for 30 minute at 37° C. prior to initiating the reaction by the addition of substrate. Reactions were terminated after 20 minutes of incubation at 37° C. by the addition of glacial acetic acid to a final concentration of 3.6% (v/v).
Plates were read on a fluorometer with excitation and emission wavelengths set to 320 nm and 405 nm, respectively Inhibition constants were obtained by nonlinear regression of the data using the equation (GraphPad Software, Inc., San Diego, Calif.): v=v0/[1+(I/K′)] where v is the reaction rate, v0 is the uninhibited reaction rate, I is the inhibitor concentration and K′ is the apparent inhibition constant.
Compounds of the invention were tested in this assay and found to have pKi values at human NEP as follows.

T1 sequence (P08473 whole entry): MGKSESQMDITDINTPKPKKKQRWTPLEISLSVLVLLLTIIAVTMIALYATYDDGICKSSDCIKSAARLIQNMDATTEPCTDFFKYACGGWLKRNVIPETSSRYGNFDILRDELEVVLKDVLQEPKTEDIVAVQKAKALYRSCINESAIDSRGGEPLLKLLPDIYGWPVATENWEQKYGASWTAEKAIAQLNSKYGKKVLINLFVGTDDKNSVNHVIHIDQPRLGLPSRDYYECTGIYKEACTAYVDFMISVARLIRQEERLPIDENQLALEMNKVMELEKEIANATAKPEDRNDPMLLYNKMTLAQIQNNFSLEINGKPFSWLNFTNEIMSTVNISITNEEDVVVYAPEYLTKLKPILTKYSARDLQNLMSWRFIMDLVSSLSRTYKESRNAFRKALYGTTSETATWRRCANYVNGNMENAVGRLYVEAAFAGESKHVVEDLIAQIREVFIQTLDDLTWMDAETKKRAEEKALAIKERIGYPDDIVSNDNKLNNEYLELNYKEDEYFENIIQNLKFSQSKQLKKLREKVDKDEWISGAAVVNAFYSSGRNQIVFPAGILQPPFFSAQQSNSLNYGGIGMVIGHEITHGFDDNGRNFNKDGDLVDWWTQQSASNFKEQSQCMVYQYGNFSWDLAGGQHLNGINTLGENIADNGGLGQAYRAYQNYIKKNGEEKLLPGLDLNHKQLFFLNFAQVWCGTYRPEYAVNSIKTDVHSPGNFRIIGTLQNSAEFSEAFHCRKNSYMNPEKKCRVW

SMILES | Ki | pKi values at human NEP
Cc1ccc(Cn2nc(C(=O)N[C@H](Cc3ccccc3Cl)[C@@H](O)C(=O)O)cc2C(=O)O)cc1 [Example 2-40, 5-[(1R,2R)-2-Carboxy-1-(2-chloro-benzyl)-2-hydroxy-ethylcarbamoyl]-2-(4-methyl-benzyl)-2H-pyrazole-3-carboxylic acid] | 1.26 to 10 nM | –
O=C(N[C@H](Cc1ccccc1)[C@@H](O)C(=O)O)c1ccn(Cc2ccc(Cl)cc2)n1 [Example 8-16, (2R,3R)-3-{[1-(4-Chloro-benzyl)-1H-pyrazole-3-carbonyl]-amino}-2-hydroxy-4-phenyl-butyric acid] | 12.6 to 100 nM | –
O=C(N[C@H](Cc1ccccc1Cl)[C@@H](O)C(=O)O)c1cc(-c2ccccc2Cl)n(-c2ccc(Cl)c(Cl)c2)n1 [Example 2-63, (2R,3R)-4-(2-Chloro-phenyl)-3-{[5-(2-chloro-phenyl)-1-(3,4-dichloro-phenyl)-1H-pyrazole-3-carbonyl]-amino}-2-hydroxy-butyric acid] | 12.6 to 100 nM | –
Cc1cc(Cn2nc(C(=O)N[C@H](Cc3ccccc3Cl)[C@@H](O)C(=O)O)cc2C(=O)O)no1 [Example 2-61, 5-[(1R,2R)-2-Carboxy-1-(2-chloro-benzyl)-2-hydroxy-ethylcarbamoyl]-2-(5-methyl-isoxazol-3-ylmethyl)-2H-pyrazole-3-carboxylic acid] | 1.26 to 10 nM | –
Cc1ccc(Cn2nc(C(=O)N[C@@H](CC(=O)O)Cc3ccccc3Cl)cc2C(=O)O)cc1 [Example 11-5, 5-[(R)-2-Carboxy-1-(2-chloro-benzyl)-ethylcarbamoyl]-2-(4-methyl-benzyl)-2H-pyrazole-3-carboxylic acid] | 12.6 to 100 nM | –
CCCCc1cc(C(=O)N[C@H](Cc2ccccc2Cl)[C@@H](O)C(=O)O)nn1Cc1c(F)c(F)c(OC)c(F)c1F [Example 2-69, (2R,3R)-3-{[5-Butyl-1-(2,3,5,6-tetrafluoro-4-methoxy-benzyl)-1H-pyrazole-3-carbonyl]-amino}-4-(2-chloro-phenyl)-2-hydroxy-butyric acid] | ≤ 1 nM | –
O=C(N[C@H](Cc1ccccc1Cl)[C@@H](O)C(=O)O)c1cc(C(=O)O)n(Cc2ccccc2Cl)n1 [Example 2-19, 5-[(1R,2R)-2-Carboxy-1-(2-chloro-benzyl)-2-hydroxy-ethylcarbamoyl]-2-(2-chloro-benzyl)-2H-pyrazole-3-carboxylic acid] | 1.26 to 10 nM | –
O=C(O)C[C@@H](Cc1ccccc1Cl)NC(=O)c1cc(C(=O)O)n(CC(=O)O)n1 [Example 11-9, 5-[(R)-2-Carboxy-1-(2-chloro-benzyl)-ethylcarbamoyl]-2-carboxymethyl-2H-pyrazole-3-carboxylic acid] | 12.6 to 100 nM | –
CC(c1ccccc1)n1nc(C(=O)N[C@H](Cc2ccccc2Cl)[C@@H](O)C(=O)O)cc1C(=O)O (stereo partly drawn) [Example 2-60, 5-[(1R,2R)-2-Carboxy-1-(2-chloro-benzyl)-2-hydroxy-ethylcarbamoyl]-2-(1-phenyl-ethyl)-2H-pyrazole-3-carboxylic acid] | 12.6 to 100 nM | –
O=C(N[C@H](Cc1ccccc1)[C@@H](O)C(=O)O)c1cc([N+](=O)[O-])[nH]n1 [Example 8-11, (2R,3R)-2-Hydroxy-3-[(5-nitro-1H-pyrazole-3-carbonyl)-amino]-4-phenyl-butyric acid] | 12.6 to 100 nM | –
O=C(N[C@H](Cc1ccccc1Cl)[C@@H](O)C(=O)O)c1cc(C(=O)O)n(Cc2cc(F)ccc2Cl)n1 [Example 2-15, 5-[(1R,2R)-2-Carboxy-1-(2-chloro-benzyl)-2-hydroxy-ethylcarbamoyl]-2-(2-chloro-5-fluoro-benzyl)-2H-pyrazole-3-carboxylic acid] | 1.26 to 10 nM | –
O=C(N[C@H](Cc1ccccc1Cl)[C@@H](O)C(=O)O)c1cc(C(=O)N2CCOCC2)[nH]n1 [Example 2-55, (2R,3R)-4-(2-Chloro-phenyl)-2-hydroxy-3-{[5-(morpholine-4-carbonyl)-1H-pyrazole-3-carbonyl]-amino}-butyric acid] | 12.6 to 100 nM | –
O=C(N[C@H](Cc1ccccc1Cl)[C@@H](O)C(=O)O)c1cc(C(=O)O)[nH]n1 [Example 2-45, 5-[(1R,2R)-2-Carboxy-1-(2-chloro-benzyl)-2-hydroxy-ethylcarbamoyl]-2H-pyrazole-3-carboxylic acid] | 1.26 to 10 nM | –
O=C(N[C@H](Cc1ccccc1C(F)(F)F)[C@@H](O)C(=O)O)c1cc(C(=O)N2CC[C@@H](O)C2)[nH]n1 [Example 6-10, (2R,3R)-2-Hydroxy-3-{[5-((R)-3-hydroxy-pyrrolidine-1-carbonyl)-1H-pyrazole-3-carbonyl]-amino}-4-(2-trifluoromethyl-phenyl)-butyric acid] | 1.26 to 10 nM | –
O=C(N[C@H](Cc1ccccc1Cl)[C@@H](O)C(=O)O)c1cc(C(=O)O)n(Cc2ccc(Cl)c(C(F)(F)F)c2)n1 [Example 2-18, 5-[(1R,2R)-2-Carboxy-1-(2-chloro-benzyl)-2-hydroxy-ethylcarbamoyl]-2-(4-chloro-3-trifluoromethyl-benzyl)-2H-pyrazole-3-carboxylic acid] | 12.6 to 100 nM | –
COc1c(F)c(F)c(Cn2nc(C(=O)N[C@H](Cc3ccccc3)[C@@H](O)C(=O)O)cc2C2CC2)c(F)c1F [Example 8-22, (2R,3R)-3-{[5-Cyclopropyl-1-(2,3,5,6-tetrafluoro-4-methoxy-benzyl)-1H-pyrazole-3-carbonyl]-amino}-2-hydroxy-4-phenyl-butyric acid] | ≤ 1 nM | –
COc1ccccc1-c1cc(C(=O)N[C@H](Cc2ccccc2Cl)[C@@H](O)C(=O)O)[nH]n1 [Example 3-4, (2R,3R)-4-(2-Chloro-phenyl)-2-hydroxy-3-{[5-(2-methoxy-phenyl)-2H-pyrazole-3-carbonyl]-amino}-butyric acid] | 12.6 to 100 nM | –
O=C(N[C@H](Cc1ccccc1Cl)[C@@H](O)C(=O)O)c1cc(-c2ccccc2C(F)(F)F)n[nH]1 [Example 3-2, (2R,3R)-4-(2-Chloro-phenyl)-2-hydroxy-3-{[5-(2-trifluoromethyl-phenyl)-2H-pyrazole-3-carbonyl]-amino}-butyric acid] | 12.6 to 100 nM | –
O=C(N[C@H](Cc1ccccc1Cl)[C@@H](O)C(=O)O)c1cc(C(=O)O)n(CCc2ccccc2)n1 [Example 2-59, 5-[(1R,2R)-2-Carboxy-1-(2-chloro-benzyl)-2-hydroxy-ethylcarbamoyl]-2-phenethyl-2H-pyrazole-3-carboxylic acid] | 12.6 to 100 nM | –
O=C(N[C@H](Cc1ccccc1)[C@@H](O)C(=O)O)c1cc(C(=O)O)n(Cc2cccnc2)n1 [Example 8-15, 5-((1R,2R)-1-Benzyl-2-carboxy-2-hydroxy-ethylcarbamoyl)-2-pyridin-3-ylmethyl-2H-pyrazole-3-carboxylic acid] | 12.6 to 100 nM | –
O=C(N[C@H](Cc1ccccc1)[C@@H](O)C(=O)O)c1cc(C(=O)O)[nH]n1 [Example 8-10, 5-((1R,2R)-1-Benzyl-2-carboxy-2-hydroxy-ethylcarbamoyl)-2H-pyrazole-3-carboxylic acid] | 12.6 to 100 nM | –
O=C(N[C@H](Cc1ccccc1Cl)[C@@H](O)C(=O)O)c1cc(O)n(Cc2ccc(Cl)cc2F)n1 [Example 2-67, (2R,3R)-3-{[1-(4-Chloro-2-fluoro-benzyl)-5-hydroxy-1H-pyrazole-3-carbonyl]-amino}-4-(2-chloro-phenyl)-2-hydroxy-butyric acid] | 12.6 to 100 nM | –
O=C(O)C[C@@H](Cc1ccccc1Cl)NC(=O)c1cc(C(=O)O)n(Cc2cccc(F)c2)n1 [Example 11-6, 5-[(R)-2-Carboxy-1-(2-chloro-benzyl)-ethylcarbamoyl]-2-(3-fluoro-benzyl)-2H-pyrazole-3-carboxylic acid] | 12.6 to 100 nM | –
COCCN(C)C(=O)c1cc(C(=O)N[C@H](Cc2ccccc2C(F)(F)F)[C@@H](O)C(=O)O)n[nH]1 [Example 6-9] | – | 7.0-7.9
O=C(N[C@H](Cc1ccccc1Cl)[C@@H](O)C(=O)O)c1cc(C(=O)O)n(Cc2ccc(F)cc2)n1 [Example 2-20, 5-[(1R,2R)-2-Carboxy-1-(2-chloro-benzyl)-2-hydroxy-ethylcarbamoyl]-2-(4-fluoro-benzyl)-2H-pyrazole-3-carboxylic acid] | 1.26 to 10 nM | –
CC(Cn1nc(C(=O)N[C@@H](CC(=O)O)Cc2ccccc2Cl)cc1C(=O)O)C(=O)O (stereo partly drawn) [Example 11-10, 5-[(R)-2-Carboxy-1-(2-chloro-benzyl)-ethylcarbamoyl]-2-(2-carboxy-propyl)-2H-pyrazole-3-carboxylic acid] | 12.6 to 100 nM | –
O=C(N[C@H](Cc1ccccc1)[C@@H](O)C(=O)O)c1cnn(-c2ccccn2)c1 [Example 9-1, (2R,3R)-2-Hydroxy-4-phenyl-3-[(1-pyridin-2-yl-1H-pyrazole-4-carbonyl)-amino]-butyric acid] | 12.6 to 100 nM | –
